In patent US5436221A, “Tumor metastasis inhibiting compounds and methods” (Fuji Photo Film Co., Ltd., priority 1991, dated 1995):
Numbered stars: 1 amine (or outer) side, 2 acyl side, 3 side chain; on linkers, the order of the positions; unused ones are H or OH. Square brackets hold non-standard residues; d marks the D form. Ends that are not written are not given here. Peptide text beside a SMILES is read from it. * marks the point of attachment. X4 = O=C(O)[C@H]1OC(OCCOCCN*)[C@H](O)[C@@H](O)[C@@H]1O; Suc = O=C(CCC(=O)[*:2])[*:1]

Tests used:
B16-BL6 melanoma cells = experiment: Experimental melanoma metastasis in lungs caused by injection of B16-BL6 melanoma cells; format: in vivo, C57BL/6 female mice
Experimental: The tumor metastasis inhibitory activities of the peptide derivatives of the present invention were examined as follows.
Each of the following peptide derivatives according to the present invention, Compounds 1 to 13, 15, 19 to 22, 25, 32, 36, 37, 44, 47, 50, 56-1, 56-4, 59, 65, 68, 70, 73, 76, 77, 80, 84, 87, 89, 90, 94, 96, 99, 101, 103,106, 112, 114, 118 and 121 was mixed with B16-BL6 melanoma cells having a potent metastatic tendency in PBS so that 0.2 ml of the mixture contained 3000, 1000 or 500 μg of the peptide derivative and 5×10^6 of B16-BL6 melanoma cells. Then, 0.2 ml of each mixture was intravenously administered to each individual of a group of C57BL/6 female mice consisting of 5 mice. Fourteen days after the administration, the number of melanoma cell colony in lungs was determined and compared with that of the control mice, which were administered with PBS.
(§1) For comparison, the peptide fragments known to have tumor metastasis inhibition activity, Arg--Gly--Asp--Ser (SEQ ID NO:16) (Comparison A), Gly--Arg--Gly--Asp--Ser (SEQ ID NO:17) (Comparison B) and (Arg--Gly--Asp)n(n=5) (SEQ ID NO:18) as well as Reference Polymer A were also administered to the mice in the same manner as above.

[1] = tested on: L5178Y ML25 T-lymphoma cells; experiment: Experimental T-lymphoma metastasis in liver and spleen caused by injection of L5178Y ML25 T-lymphoma cells; format: in vivo, CDF1 (BALB/c×DBA/2) female mice; settings: dose 1000 μg mixed with T-lymphoma cells, i.v., 14 days after; for Weight (g): Average ± SD Spleen: PBS control 0.28 ± 0.03, no tumor cells 0.08 ± 0; for Weight (g): Average ± SD Liver: PBS control 4.21 ± 0.49, no tumor cells 1.09 ± 0.11
Experimental: Separately, each of the following peptide derivatives of the present invention, Compound 1, 2, 8, 12, 20, 47, 56, 59, 67, 73 and 85, was mixed with L5178Y ML25 T-lymphoma cells in PBS so that 0.2 ml of the mixture contained 3000 or 1000 μg of the peptide derivative and 4×10^4 of the T-lymphoma cells. Then, 0.2 ml of each mixture was intravenously administered to each individual of a group of CDF1 (BALB/c×DBA/2) female mice consisting of 5 mice. Fourteen days after the administration, the weights of the livers and the spleens of the mice were determined and compared with those of the control mice.
as §1

[2] = Experiment 7, dose 500 μg, PBS control 85 ± 20
[3] = Experiment 1, dose 3000 μg mixed with B16-BL6 cells, i.v., lung colonies 14 days after, PBS control 116 ± 27
[4] = Experiment 2, dose 1000 μg mixed with B16-BL6 cells, i.v., lung colonies 14 days after, PBS control 84 ± 11
[5] = Experiment 5, dose 1000 μg, PBS control 91 ± 33
[6] = Experiment 3, dose 500 μg, lung colonies 14 days after, PBS control 145 ± 30
[7] = Experiment 6, dose 500 μg, PBS control 128 ± 24
[8] = Experiment 4, dose 500 μg, PBS control 116 ± 19

6-O-Carboxymethyl-N-Acetylchitohexaose Carrying --Asp--Arg--Leu--Asp--Ser [Compound 94]
Number of Colony Average ± SD (B16-BL6 melanoma cells; [2]): 14 ± 3

6-O-Carboxymethyl-N-Acetylchitohexaose Carrying --Gly--Arg--Phe--Asp--Ser [Compound 96]
Number of Colony Average ± SD (B16-BL6 melanoma cells; [2]): 9 ± 4

6-O-Sulfated-Carboxymethyl-N-Acetylchitooligosaccharide Carrying --Asp--Arg--D--Leu--Asp--Ser [Compound 99]
Number of Colony Average ± SD (B16-BL6 melanoma cells; [2]): 3 ± 3

6-O-Sulfated-Carboxymethyl-N-Acetylchitooligosaccharide Carrying --Asp--Arg--D--Phe--Asp--Ser [Compound 101]
Number of Colony Average ± SD (B16-BL6 melanoma cells; [2]): 13 ± 6

N=C(N)NCCC[C@H](N)C(=O)NCC(=O)N[C@@H](CC(=O)O)C(=O)N[C@@H](CO)C(=O)O [Comparison A, Arg--Gly--Asp--Ser]
Number of Colony Average ± SD (B16-BL6 melanoma cells; [3]): 70 ± 8 | Number of Colony Average ± SD (B16-BL6 melanoma cells; [4]): 62 ± 9 | Number of Colony Average ± SD (B16-BL6 melanoma cells; Experiment 3, dose 3000 μg, PBS control 145 ± 30): 92 ± 14 | Number of Colony Average ± SD (B16-BL6 melanoma cells; Experiment 4, dose 3000 μg, PBS control 116 ± 19): 74 ± 11 | Number of Colony Average ± SD (B16-BL6 melanoma cells; Experiment 5, dose 3000 μg, PBS control 91 ± 33): 60 ± 4 | Number of Colony Average ± SD (B16-BL6 melanoma cells; Experiment 6, dose 3000 μg, PBS control 128 ± 24): 88 ± 20 | Number of Colony Average ± SD (B16-BL6 melanoma cells; Experiment 7, dose 3000 μg, PBS control 85 ± 20): 51 ± 6 | Weight (g): Average ± SD Spleen [1]: 0.22 ± 0.03 g | Weight (g): Average ± SD Liver [1]: 3.67 ± 1.04 g

N=C(N)NCCC[C@H](NC(=O)CN)C(=O)NCC(=O)N[C@@H](CC(=O)O)C(=O)N[C@@H](CO)C(=O)O [Comparison B, Gly--Arg--Gly--Asp--Ser]
Number of Colony Average ± SD (B16-BL6 melanoma cells; [3]): 50 ± 10 | Number of Colony Average ± SD (B16-BL6 melanoma cells; [4]): 40 ± 10 | Number of Colony Average ± SD (B16-BL6 melanoma cells; Experiment 3, dose 1000 μg, PBS control 145 ± 30): 89 ± 18 | Number of Colony Average ± SD (B16-BL6 melanoma cells; Experiment 4, dose 1000 μg, PBS control 116 ± 19): 78 ± 8 | Number of Colony Average ± SD (B16-BL6 melanoma cells; [5]): 49 ± 7 | Number of Colony Average ± SD (B16-BL6 melanoma cells; Experiment 6, dose 1000 μg, PBS control 128 ± 24): 76 ± 6 | Number of Colony Average ± SD (B16-BL6 melanoma cells; Experiment 7, dose 1000 μg, PBS control 85 ± 20): 50 ± 8 | Weight (g): Average ± SD Spleen [1]: 0.17 ± 0.03 g | Weight (g): Average ± SD Liver [1]: 2.24 ± 0.46 g

CC(C)C[C@H](NC(=O)[C@@H](N)CCCNC(=N)N)C(=O)N[C@@H](CC(=O)O)C(=O)N[C@@H](CO)C(N)=O [Compound 9] (H-RLDS-NH2)
Number of Colony Average ± SD (B16-BL6 melanoma cells; [3]): 22 ± 10

C[C@@H](NC(=O)[C@@H](N)CCCNC(=N)N)C(=O)N[C@@H](CC(=O)O)C(=O)N[C@H](C(N)=O)[C@@H](C)O [Compound 10] (H-R[dA]DT-NH2)
Number of Colony Average ± SD (B16-BL6 melanoma cells; [3]): 58 ± 15

CC(=O)N[C@@H](CC(=O)O)C(=O)N[C@H](CCCNC(=N)N)C(=O)N[C@@H](CC(C)C)C(=O)N[C@@H](CC(=O)O)C(=O)N[C@@H](CO)C(=O)O [Compound 32] (Ac-D[dR]LDS-OH)
Number of Colony Average ± SD (B16-BL6 melanoma cells; [4]): 24 ± 5

CC(C)C[C@@H](NC(=O)[C@H](CCCNC(=N)N)NC(=O)[C@H](CO)NC(=O)[C@H](CC(=O)O)NC(=O)[C@@H](CC(C)C)NC(=O)[C@H](CCCNC(=N)N)NC(=O)[C@H](CO)NC(=O)[C@H](CC(=O)O)NC(=O)[C@@H](CC(C)C)NC(=O)[C@H](CCCNC(=N)N)NC(=O)[C@H](CO)NC(=O)[C@H](CC(=O)O)NC(=O)[C@@H](CC(C)C)NC(=O)[C@@H](N)CCCNC(=N)N)C(=O)N[C@@H](CC(=O)O)C(=O)N[C@@H](CO)C(=O)O [Compound 37] (H-R[dL]DSR[dL]DSR[dL]DSR[dL]DS-OH)
Number of Colony Average ± SD (B16-BL6 melanoma cells; [6]): 27 ± 11

CC(C)C[C@H](NC(=O)[C@H](CCCNC(=N)N)NC(=O)CCC(=O)NCCOCCOC1O[C@H](C(=O)O)[C@@H](O)[C@H](O)[C@H]1O)C(=O)N[C@@H](CC(=O)O)C(=O)N[C@@H](CO)C(=O)O (some centres unmarked) [Compound 80] ({X4-Suc}-RLDS-OH)
Number of Colony Average ± SD (B16-BL6 melanoma cells; [7]): 36 ± 7

(Arg--Gly--Asp)n(n=5) [Comparison C]
Number of Colony Average ± SD (B16-BL6 melanoma cells; Experiment 1, dose 1000 μg mixed with B16-BL6 cells, i.v., lung colonies 14 days after, PBS control 116 ± 27): 40 ± 15 | Number of Colony Average ± SD (B16-BL6 melanoma cells; [4]): 23 ± 9 | Number of Colony Average ± SD (B16-BL6 melanoma cells; [6]): 68 ± 9 | Number of Colony Average ± SD (B16-BL6 melanoma cells; [5]): 39 ± 11 | Number of Colony Average ± SD (B16-BL6 melanoma cells; [7]): 57 ± 12 | Number of Colony Average ± SD (B16-BL6 melanoma cells; [2]): 44 ± 16

GRLDS [Compound 15]
Number of Colony Average ± SD (B16-BL6 melanoma cells; [3]): 43 ± 12

Iminodiacetic Acid-Tetracraboxylic Acid Derivative (β-Ala--Arg--Leu--Asp--Ser)4 [Compound 76]
Number of Colony Average ± SD (B16-BL6 melanoma cells; [8]): 48 ± 5

RLDSRLDSRLDSRLDS [Compound 36]
Number of Colony Average ± SD (B16-BL6 melanoma cells; [6]): 46 ± 6

R[dL]DR[dL]DR[dL]DR[dL]DR[dL]DR[dL]DR[dL]DR[dL]DR[dL]DR[dL]DR[dL]DR[dL]DR[dL]DR[dL]DR[dL]DR[dL]DR[dL]DR[dL]DR[dL]DR[dL]D [Compound 44]
Number of Colony Average ± SD (B16-BL6 melanoma cells; [6]): 66 ± 15

Succinyl Derivative of Chondroitin Sulfate Carrying --(Arg--D--Leu--Asp--Ser)2 [Compound 121]
Number of Colony Average ± SD (B16-BL6 melanoma cells; [2]): 45 ± 11

Succinylated CM-Chitin Carrying --(Arg--D--Leu--Asp--Ser)2 [Compound 112]
Number of Colony Average ± SD (B16-BL6 melanoma cells; [2]): 14 ± 7

Succinylated CM-Chitin Carrying --Gly--Arg--D--Leu--Asp--Ser [Compound 106]
Number of Colony Average ± SD (B16-BL6 melanoma cells; [2]): 1 ± 1

Succinylated Chondroitin Sulfate Carrying --D--Arg--Phe--Asp--Ser [Compound 118]
Number of Colony Average ± SD (B16-BL6 melanoma cells; [2]): 43 ± 8

Succinylated Pantaethylenehexaamine (β-Ala--Arg--Leu--Asp--Ser--NH--iPr)6 [Compound 77]
Number of Colony Average ± SD (B16-BL6 melanoma cells; [8]): 41 ± 6

Succinylated Polyallylamine Carrying --(Asp--D--Arg--Phe--Asp--Ser)2 [Compound 103]
Number of Colony Average ± SD (B16-BL6 melanoma cells; [2]): 24 ± 8

Sulfated CM-Chitin Carrying --Gly--D--Arg--Leu--Asp--Ser [Compound 114]
Number of Colony Average ± SD (B16-BL6 melanoma cells; [2]): 21 ± 11

Tetrahydrofuran-2,3,4,5-Tetracarboxylic Acid (Arg--Leu--Asp--Ser)4 (RLDS; also: four copies on tetrahydrofuran-2,3,4,5-tetracarboxylic acid core) [Compound 73]
Number of Colony Average ± SD (B16-BL6 melanoma cells; [8]): 38 ± 7 | Weight (g): Average ± SD Spleen [1]: 0.15 ± 0.05 g | Weight (g): Average ± SD Liver [1]: 1.95 ± 1.00 g
